Measurements published in patent US11020367B2, “Method for preparing medicine with dicaffeoylquinic acid for treating gout” (Huazhong Agricultural University, priority 2019, dated 2021).
Marks after values point to notes of the source that are not given here.

Key:
THP-1 cells = assay: IL-1β secretion in THP-1 cells stimulated by lipopolysaccharide and sodium urate (gout inflammation model, ELISA); type: cell-based; settings: 100 μmol/L compound pre-incubated 12 h, then lipopolysaccharide 1 μg/mL 2 h and sodium urate 200 μg/mL 4 h; PMA-differentiated THP-1; model group 8747.09 ± 975.97, control group 214.83 ± 11.92
Procedure: THP-1 suspension cells were inoculated into a 24-well plate. When the density reached 80%, a phorbol ester (PMA) solution with a final concentration of 100 ng/mL was added. After 12 hours of PMA treatment, THP-1 cells differentiated into adherent macrophages. Culture medium was aspirated before washing the cells with PBS, completely replacing the culture medium to culture for 12 h before carrying out a dosing treatment. One hundred μmol/L of the above identified monomer compounds were pre-incubated for 12 h, then lipopolysaccharide with a final concentration of 1 μg/mL was added and acted for 2 h, and finally a sodium urate solution with a final concentration of 200 μg/mL was added and acted for 4 h. […] The model group was pre-incubated without drugs, and cells were stimulated with lipopolysaccharide and sodium urate. Finally, the cell supernatant was collected, centrifuged, and IL-1β content in the supernatant was measured by using an ELISA kit.

XOD (xanthine oxidase) = XOD (xanthine oxidase) (Homo sapiens, UniProt P47989); assay: Inhibition of XOD enzyme activity (absorbance at 295 nm, xanthine substrate); type: biochemical; settings: XOD 0.02 U/mL, xanthine 1 mmol/L, 37° C.; read-out: IC50 in inhibiting XOD
Procedure: Forty μL of xanthine solution (1 mmol/L) was added with a spray gun to measure absorbance every 20 s for 15 times.

XOD (xanthine oxidase), sequence (P47989 whole entry, species assumed): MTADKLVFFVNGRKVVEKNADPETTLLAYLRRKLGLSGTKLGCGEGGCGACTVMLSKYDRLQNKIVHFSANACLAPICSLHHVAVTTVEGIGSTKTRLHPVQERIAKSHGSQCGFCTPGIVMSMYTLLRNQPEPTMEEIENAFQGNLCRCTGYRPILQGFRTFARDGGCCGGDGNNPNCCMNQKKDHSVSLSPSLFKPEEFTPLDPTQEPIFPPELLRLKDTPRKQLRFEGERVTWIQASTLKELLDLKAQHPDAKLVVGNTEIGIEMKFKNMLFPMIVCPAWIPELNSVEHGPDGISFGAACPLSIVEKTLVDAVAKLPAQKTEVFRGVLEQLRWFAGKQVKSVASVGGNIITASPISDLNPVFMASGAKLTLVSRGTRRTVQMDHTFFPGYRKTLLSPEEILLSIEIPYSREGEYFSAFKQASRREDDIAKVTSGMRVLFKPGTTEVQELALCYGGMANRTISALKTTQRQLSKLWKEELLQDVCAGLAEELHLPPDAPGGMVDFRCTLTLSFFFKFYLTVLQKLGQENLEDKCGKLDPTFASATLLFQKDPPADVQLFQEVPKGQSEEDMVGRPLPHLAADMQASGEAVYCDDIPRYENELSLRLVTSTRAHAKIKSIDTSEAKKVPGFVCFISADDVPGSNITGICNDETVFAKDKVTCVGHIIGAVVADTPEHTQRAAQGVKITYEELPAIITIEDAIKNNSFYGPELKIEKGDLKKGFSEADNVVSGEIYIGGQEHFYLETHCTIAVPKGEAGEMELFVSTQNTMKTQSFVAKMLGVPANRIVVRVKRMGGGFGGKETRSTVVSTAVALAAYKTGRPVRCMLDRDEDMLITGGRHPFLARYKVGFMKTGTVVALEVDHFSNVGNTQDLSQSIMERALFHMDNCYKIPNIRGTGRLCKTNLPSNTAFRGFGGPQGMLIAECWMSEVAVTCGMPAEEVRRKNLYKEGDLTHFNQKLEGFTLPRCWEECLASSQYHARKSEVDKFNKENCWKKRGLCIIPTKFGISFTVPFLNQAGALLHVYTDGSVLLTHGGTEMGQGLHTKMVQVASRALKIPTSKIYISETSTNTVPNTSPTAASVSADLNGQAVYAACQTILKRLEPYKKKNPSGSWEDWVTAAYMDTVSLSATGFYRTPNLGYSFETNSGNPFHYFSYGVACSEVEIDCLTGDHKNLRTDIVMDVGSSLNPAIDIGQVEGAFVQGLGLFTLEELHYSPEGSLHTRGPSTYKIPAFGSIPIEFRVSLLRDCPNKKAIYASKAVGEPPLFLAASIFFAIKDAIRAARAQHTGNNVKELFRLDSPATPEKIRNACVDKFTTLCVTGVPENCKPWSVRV

Structure (SMILES): O=C(C=Cc1ccc(O)c(O)c1)OC1C(O)CC(OC(=O)C=Cc2ccc(O)c(O)c2)(C(=O)O)CC1O (stereo not shown) [1,4-diCQA, 1,4-dicaffeoylquinic acid]
- IL-1β in cell supernatant (THP-1 cells): 4647.67 ± 607.03^bc pg/mL
- IC50 (XOD (xanthine oxidase)): 7.36 ± 0.63 µM

Structure (SMILES): O=C(C=Cc1ccc(O)c(O)c1)OC1CC(OC(=O)C=Cc2ccc(O)c(O)c2)(C(=O)O)CC(O)C1O (stereo not shown) [1,5-diCQA, 1,5-dicaffeoylquinic acid]
- IL-1β in cell supernatant (THP-1 cells): 4176.74 ± 1214.41^b pg/mL
- IC50 (XOD (xanthine oxidase)): 122 ± 2.56 µM

Structure (SMILES): O=C(C=Cc1ccc(O)c(O)c1)OC1CC(O)(C(=O)O)CC(O)C1OC(=O)C=Cc1ccc(O)c(O)c1 (stereo not shown) [3,4-diCQA, 3,4-dicaffeoylquinic acid]
- IL-1β in cell supernatant (THP-1 cells): 7088.57 ± 621.91^d pg/mL
- IC50 (XOD (xanthine oxidase)): 260 ± 18.4 µM

Structure (SMILES): O=C(C=Cc1ccc(O)c(O)c1)OC1CC(O)(C(=O)O)CC(OC(=O)C=Cc2ccc(O)c(O)c2)C1O (stereo not shown) [3,5-diCQA, 3,5-dicaffeoylquinic acid]
- IL-1β in cell supernatant (THP-1 cells): 8850.00 ± 190.20^e pg/mL
- IC50 (XOD (xanthine oxidase)): 289 ± 21.8 µM

Structure (SMILES): O=C(C=Cc1ccc(O)c(O)c1)OC1CC(O)(C(=O)O)CC(O)C1OC(=O)C=Cc1ccc(O)c(O)c1 (stereo not shown) [4,5-diCQA, 4,5-dicaffeoylquinic acid]
- IL-1β in cell supernatant (THP-1 cells): 5572.09 ± 632.81^c pg/mL
- IC50 (XOD (xanthine oxidase)): 233 ± 10.9 µM
